In patent US20160304970A1, “GENE BIOMARKER TO DIAGNOSE METASTIC LIVER CANCER AND METHODS FOR TARGETING THE SAME” (University of Southern California, priority 2015, published 2016):

Tests used:
[1] = test system: PTEN; test: PTEN 3′-UTR luciferase reporter and western blot of PTEN-FOXO pathway; type: cell-based; conditions: FIG. 47D
[2] = test system: CD133 (+) Huh7 cells; test: Anchorage-independent growth assay in soft agar; type: cell-based, human; conditions: retinoic acid 5 μg/ml, SAHA 0.5 μg/ml; 2 weeks
Method: Freshly sorted CD133 (+)/(−) Huh7 cells were mixed with 0.35% agarose containing 1000 cells per well in culture medium with retinoic acid (5 μg/ml), SAHA (0.5 μg/ml), or a combination of both. After 2 weeks, the colony numbers were counted.

[3] = test system: CD133 (+) Huh7 cells; test: Tumor spheroid formation assay; type: cell-based, human; conditions: CD133 (+) group; ATRA 5 μg/ml, SAHA 0.5 μg/ml; 2 weeks
Method: Freshly sorted CD133(+)/(−) Huh7 cells were plated in a low binding culture plate (NUNC 145397) containing 100 cells per well in 100 μl of culture medium with ATRA (5 μg/ml), SAHA (0.5 μg/ml), or a combination of both. After 2 weeks, colony numbers were counted.

[4] = test system: patient-derived TICs; test: Subcutaneous xenograft of patient-derived TICs in NSG mice; type: in vivo, mouse; conditions: no ATRA, i.p.
Method: To establish prognostic biomarkers for the best combination chemotherapy, five different patient-derived TICs were tested for responses as xenografts in NSG mice for the best combination chemotherapy based on mutation/transcriptome subtypes. Anti-tumorigenic ability by ATRA+SAHA targeting TICs encapsulated with SAHA was validated (Table 3). […] As placebo treatment, solvent (DMSO) in an equal total volume (0.2 ml/mouse) was injected. Tumor growth kinetics was studied. Combination of ATRA with SAHA further inhibited the self-renewal abilities of TICs in vivo (FIG. 17E).

[5] = test system: Huh7, Hep3B, HepG2, human CSCs and mouse CSCs; test: Combination dose determination, cell viability of HCC cells; type: cell-based
Method: Freshly sorted CD133 (+) Huh7 or mouse TICs were plated in 100 μl of medium containing 5000 cells per well in a 96-well plate. After 16 hours, 0.5 μl of a 2 μg/ml, 1 μg/ml, 0.2 μg/ml, 0.1 μg/ml, 0.02 μg/ml, or 0.01 μg/ml compound was added to each well in triplicate, resulting in a 10 μg/ml, 5 μg/ml, 1 μg/ml, 0.5 μg/ml, 0.1 μg/ml, and 0.05 μg/ml final concentration for most compounds, respectively. After 48 hours, the cells were either measured for cell viability by Cell-Glo® Reagent (Promega), or fixed with 1% PFA (paraformaldehyde) and stained with DAPI for high-throughput screening.

[6] = test system: Nanog; test: Nanog-GFP reporter cell screening; type: cell-based, mouse; conditions: TICs with lentivirus Nanog-GFP reporter
Method: The Nanog-GFP liver cancer stem cell line was transduced with pGreenZeo-Nanog transcriptional reporter lentivirus vector (System Biosciences SR10031VA-1). The transduced cells were positively selected with zeomycin (10 μg/ml) and further sorted for the GFP-high population (˜20% of total population) for drug screening. Nanog-GFP liver cancer stem cells were then seeded in 100 μl medium containing 5000 cells per well in a 96-well plate. After 16 hours, 0.5 μl of a […] compound was added to each well, resulting in a 10 μg/ml final concentration for most compounds. After 12 hours, the cells were fixed with 1% Paraformadehyde and stained with DAPI; compounds were screened in duplicate. The GFP and DAPI images were acquired using a BD Pathway Bioimaging Systems instrument. Z-score was calculated from the data using the formula z=(X−u)/s.d., where u is the mean, s.d. is the standard deviation of the whole population and X is the sample value calculated based on the ratio of GFP intensity to DAPI intensity. The z-score of selected hits must be less than −1.0. The average of z-score of vehicle control is 2.0±1.04.

[7] = test system: CD133 (+) Huh7 cells; test: In vivo tumorigenicity, CD133 (+) Huh7 cells in NOG mice; set-up: species or system mouse
Method: The TUNEL staining was performed according to the manufacturer's instructions (4810-30-K, TREVIGEN). In brief, paraffin-embedded tumor sections from each group were de-paraffinized, re-hydrated, and washed twice in PBS. Samples were covered with Proteinase K solution for 30 minutes at room temperature and then washed two times in deionized water. Slides were immersed in quenching solution for 5 minutes at room temperature and then washed in PBS. Slides were incubated in TdT labeling buffer for 5 minutes, immersed with labeling reaction mix, and incubated at 37° C. for 1 hour in a humidity chamber. Samples were immersed in TdT stop buffer for 5 minutes and then washed twice in deionized water for 5 minutes each at room temperature. Samples were covered with Strep-HRP solution and incubated for 10 minutes at 37° C. and washed twice in PBS. Samples were incubated in DAB solution for 5 minutes and then washed in deionized water several times. The samples were counterstained with Methyl Green and mounted on slides for observation.
CD133 was conjugated to the terminal amine functionality on a polyethylene glycol block of polylactide-polyethylene glycol (PLA-PEG) as previously described (Swaminathan et al., 2013). PLGA (30 mg) was dissolved in 1 ml chloroform containing ATRA (6 mg). An oil-in-water emulsion was formed by emulsifying the polymer drug solution in 6 ml of 2.5% w/v aqueous PVA solution by sonication (Sonicator®XL, Misonix, N.Y.) for 5 minutes in an ice bath. The PLA-PEG-CD133 conjugate was dissolved in chloroform (8 mg/100 μl) and added to the oil-in-water emulsion with stirring. The emulsion was stirred for 18 hours at ambient conditions followed by 2 hours under vacuum to remove residual chloroform. Nanoparticles were recovered by ultracentrifugation (35,000 rpm for 35 minutes at 4° C.; OptimaTMLE-80K, Beckman, Palo Alta, Calif.) and washed three times with deionized water to remove excess PVA and unencapsulated drugs. The nanoparticle suspension was then lyophilized (Labconco, FreeZone 4.5, Kansas City, Mo.). Before injection, the lyophilized nanoparticles were re-dissolved in PBS and filtered with a 0.22 micron filter.
A half million freshly sorted CD133 (+) TICs were suspended in 100 μl of Matrigel™ (BD) and injected subcutaneously into NOD/Shi-scid/IL-2Rγ^null(NOG) mice, six mice per group. After the tumor volume reached 100 mm^3, animals received one intravenous dose of CD133-conjugated RA nanoparticle (5 μg/ml) and SAHA (0.5 μg/ml) daily. The animals were monitored regularly for tumor growth and survival every day. All animals work was performed according to national and international guidelines. Animal studies were based on a protocol approved by the Institutional Animal Care and Use Committee at University of Southern California.

O=C(CCCCCCC(=O)Nc1ccccc1)NO [SAHA, suberoylanilide hydroxamic acid]
luciferase-PTEN 3′-UTR reporter activity [1]: increased | reduction of colony numbers, anchorage independent growth in soft agar [2]: 50% | reduction of colony numbers, tumor spheroid formation [3]: 66% | anti-tumorigenic ability, % (animals/total) ([4]; SAHA 8 mg/kg (human: 300 mg)): 10% (2/20) | anti-tumorigenic ability, % (animals/total) ([4]; SAHA 10 mg/kg (human: 400 mg)): 5% (1/20) | anti-tumorigenic ability, % (animals/total) ([4]; SAHA 12 mg/kg (human: 500 mg)): 10% (2/20) | cell growth / viability in vitro [5]: failed to reduce cell growth in vitro | Nanog expression [6]: suppressed Nanog expression | tumor growth ([7]; ATRA 5 μg/ml in CD133 antibody-conjugated nanoparticles, SAHA 0.5 μg/ml, after 4 days of treatment): did not reduce or even promote tumor growth | tumor morphology, hematoxylin and eosin stained sections ([7]; NOG mice, CD133 (+) Huh7 tumors): did not induce cell death of tumor cells
